From ChEMBL document CHEMBL4385620, “Inhibition of polypeptide N-acetyl-α-galactosaminyltransferases is an underlying mechanism of dietary polyphenols preventing colorectal tumorigenesis” (Bioorg Med Chem, 2019)
Activity calls are given as the source filed them. The rule behind the calls is not given here.

Legend:
[1] = target: T1, Polypeptide N-acetylgalactosaminyltransferase 2 (Homo sapiens, UniProt Q10471); assay: Inhibition of catalytic activity of human recombinant FLAG-tagged ppGalNAcT2 expressed in HEK293T cells and using 5-FAM labelled-EA2 peptide as substrate incubated for 30 mins by HPLC-based enzyme assay
[2] = target: T1, Polypeptide N-acetylgalactosaminyltransferase 2; assay: Binding affinity of human recombinant FLAG-tagged ppGalNAcT2 expressed in HEK293 cells assessed as dissociation constant by SPR analysis
[3] = target: T1, Polypeptide N-acetylgalactosaminyltransferase 2; assay: Binding affinity of human recombinant FLAG-tagged ppGalNAcT2 expressed in HEK293 cells assessed as dissociation rate by SPR analysis
[4] = target: T1, Polypeptide N-acetylgalactosaminyltransferase 2; assay: Competitive inhibition of human recombinant FLAG-tagged ppGalNAcT2 expressed in HEK293 cells using EA2 peptide as substrate by HPLC-based enzyme assay
[5] = target: T2, Polypeptide N-acetylgalactosaminyltransferase 1 (Homo sapiens, UniProt Q10472); assay: Inhibition of catalytic activity of ppGalNAcT1 (unknown origin) using EA2 peptide as substrate incubated for 30 mins by HPLC-based enzyme assay
T2 sequence (Q10472 whole entry): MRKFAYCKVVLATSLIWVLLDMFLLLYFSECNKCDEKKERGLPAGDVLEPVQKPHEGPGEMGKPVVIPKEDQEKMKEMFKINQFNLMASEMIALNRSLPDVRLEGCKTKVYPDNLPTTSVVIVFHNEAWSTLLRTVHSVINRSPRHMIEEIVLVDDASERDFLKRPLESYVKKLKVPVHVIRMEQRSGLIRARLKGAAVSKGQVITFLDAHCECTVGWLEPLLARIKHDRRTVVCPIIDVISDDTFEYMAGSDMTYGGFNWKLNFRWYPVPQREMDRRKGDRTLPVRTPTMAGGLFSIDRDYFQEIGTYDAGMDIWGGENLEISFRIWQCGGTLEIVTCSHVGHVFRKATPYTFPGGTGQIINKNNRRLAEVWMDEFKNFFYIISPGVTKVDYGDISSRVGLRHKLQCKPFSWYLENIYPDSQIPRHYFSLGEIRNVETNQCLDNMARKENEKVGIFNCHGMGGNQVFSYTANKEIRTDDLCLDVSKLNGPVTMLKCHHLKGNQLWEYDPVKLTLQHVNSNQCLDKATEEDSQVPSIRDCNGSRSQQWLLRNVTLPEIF

[6] = target: T3, Polypeptide N-acetylgalactosaminyltransferase 13 (Homo sapiens, UniProt Q8IUC8); assay: Inhibition of catalytic activity of ppGalNAcT13 (unknown origin) using EA2 peptide as substrate incubated for 30 mins by HPLC-based enzyme assay
T3 sequence (Q8IUC8 whole entry): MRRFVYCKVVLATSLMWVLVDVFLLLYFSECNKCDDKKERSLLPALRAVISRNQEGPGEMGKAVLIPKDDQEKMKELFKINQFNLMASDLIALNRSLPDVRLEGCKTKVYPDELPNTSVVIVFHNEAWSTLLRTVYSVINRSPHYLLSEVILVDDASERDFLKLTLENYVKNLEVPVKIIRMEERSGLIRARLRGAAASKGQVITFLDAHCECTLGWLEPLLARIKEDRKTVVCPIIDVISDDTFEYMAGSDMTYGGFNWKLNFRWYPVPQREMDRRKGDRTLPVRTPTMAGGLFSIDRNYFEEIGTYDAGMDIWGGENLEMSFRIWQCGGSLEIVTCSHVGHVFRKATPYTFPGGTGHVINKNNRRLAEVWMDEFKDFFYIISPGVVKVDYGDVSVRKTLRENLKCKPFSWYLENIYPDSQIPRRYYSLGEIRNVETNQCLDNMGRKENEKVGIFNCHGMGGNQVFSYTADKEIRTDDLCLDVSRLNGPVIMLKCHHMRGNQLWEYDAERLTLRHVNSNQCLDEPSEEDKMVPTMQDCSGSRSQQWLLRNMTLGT

[7] = target: T1, Polypeptide N-acetylgalactosaminyltransferase 2; assay: Inhibition of catalytic activity of human recombinant FLAG-tagged ppGalNAcT2 using Muc2 peptide as substrate incubated for 30 mins by HPLC-based enzyme assay
[8] = target: T1, Polypeptide N-acetylgalactosaminyltransferase 2; assay: Inhibition of catalytic activity of human recombinant FLAG-tagged ppGalNAcT2 using Muc5AC peptide as substrate incubated for 30 mins by HPLC-based enzyme assay
Homo sapiens = species: Homo sapiens; assay: Ratio of IC50 for IC50 for human recombinant FLAG-tagged ppGalNAcT2 W282A mutant to IC50 for human recombinant FLAG-tagged ppGalNAcT2
[9] = target: T1, Polypeptide N-acetylgalactosaminyltransferase 2; assay: Inhibition of ppGalNAcT2 in human HT-29 cells assessed as reduction in O-GalNAc glycans by measuring PNA lectin signal on cell surface at 40 uM incubated for 48 hrs by DAPI staining based immunofluorescence method
HT-29 [10] = assay: Effect on ppGalNAcT11 expression level in human HT-29 cells at 40 uM incubated for 48 hrs by Q-PCR analysis; format: ADME, cell-based; settings: ht-29, 48 h
HT-29 [11] = assay: Effect on ppGalNAcT13 expression level in human HT-29 cells at 40 uM incubated for 48 hrs by Q-PCR analysis; format: ADME, cell-based; settings: ht-29, 48 h
HT-29 [12] = assay: Effect on ppGalNAcT14 expression level in human HT-29 cells at 40 uM incubated for 48 hrs by Q-PCR analysis; format: ADME, cell-based; settings: ht-29, 48 h
HT-29 [13] = assay: Effect on ppGalNAcT16 expression level in human HT-29 cells at 40 uM incubated for 48 hrs by Q-PCR analysis; format: ADME, cell-based; settings: ht-29, 48 h
Cricetulus griseus [14] = species: Cricetulus griseus; assay: Inhibition of ppGalNAcT2 in Chinese hamster ldlD cells assessed as reduction in O-GalNAc glycosylation by measuring metabolic labelled-GalNAz signal at 40 uM incubated for 48 hrs by click chemistry assay; format: cell-based
Cricetulus griseus [15] = species: Cricetulus griseus; assay: Inhibition of ppGalNAcT2 in Chinese hamster ldlD cell lysates assessed as reduction in O-GalNAc glycosylation by measuring glycans VVA lectin expression at 0.5 to 4 uM incubated for 30 mins by Western blot analysis; format: subcellular; settings: Lysate
[16] = target: T1, Polypeptide N-acetylgalactosaminyltransferase 2; assay: Inhibition of ppGalNAcT2 in human Jurkat cells assessed as reduction in O-GalNAc glycosylation by measuring VVA lectin expression at 40 uM incubated for 48 hrs by Western blot analysis; format: cell-based
[17] = target: T1, Polypeptide N-acetylgalactosaminyltransferase 2; assay: Inhibition of ppGalNAcT2 in human HCT116 cells assessed as reduction in O-GalNAc glycosylation by measuring VVA lectin expression at 40 uM incubated for 48 hrs by Western blot analysis; format: cell-based
SW480 = assay: Cytotoxicity against human SW480 cells at 40 uM incubated for 48 hrs by CCK-8 assay; format: cell-based; settings: sw480, 48 h
HCT-116 = assay: Antimigratory activity in human HCT116 cells at 40 uM incubated for 48 hrs by crystal violet staining based method; format: functional, cell-based
RKO = assay: Antimigratory activity in human RKO cells at 40 uM incubated for 48 hrs by crystal violet staining based method; format: functional, cell-based
HT-29 [18] = assay: Effect on ppGalNAcT2 expression level in human HT-29 cells at 40 uM incubated for 48 hrs by Western blot analysis; format: ADME, cell-based; settings: ht-29, 48 h

T1 sequence (Q10471 whole entry): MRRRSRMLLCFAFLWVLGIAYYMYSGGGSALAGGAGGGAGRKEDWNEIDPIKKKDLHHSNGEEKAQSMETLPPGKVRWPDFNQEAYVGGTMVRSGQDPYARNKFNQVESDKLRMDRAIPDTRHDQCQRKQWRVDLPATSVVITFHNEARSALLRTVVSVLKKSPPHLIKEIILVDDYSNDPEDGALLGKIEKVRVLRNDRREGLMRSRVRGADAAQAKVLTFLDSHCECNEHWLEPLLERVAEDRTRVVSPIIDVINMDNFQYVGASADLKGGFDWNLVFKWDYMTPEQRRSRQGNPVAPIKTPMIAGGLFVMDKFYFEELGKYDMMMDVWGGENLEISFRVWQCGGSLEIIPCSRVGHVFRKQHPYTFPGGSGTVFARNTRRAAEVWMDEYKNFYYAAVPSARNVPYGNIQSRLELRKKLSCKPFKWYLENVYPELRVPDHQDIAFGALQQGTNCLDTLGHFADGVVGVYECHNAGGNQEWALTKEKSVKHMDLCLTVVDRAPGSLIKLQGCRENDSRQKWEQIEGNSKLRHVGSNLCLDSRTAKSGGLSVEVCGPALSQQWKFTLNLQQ

IC50 [1]: 760 nM
Kd [2]: 294 nM
koff [3]: 1.04 ×10⁻³ /s
Ki [4]: 1070 nM
IC50 [5]: 2460 nM
IC50 [6]: 13800 nM
IC50 [7]: 1140 nM
IC50 [8]: 2070 nM
Ratio IC50 (Homo sapiens): 4
inhibition [9]: Active
inhibition (Cricetulus griseus [15]): Dose-dependent effect
inhibition [16]: Active
inhibition [17]: Active
SMILES: O=c1oc2c(O)c(O)ccc2c2cc(O)c(O)cc12
Activity (HT-29 [10]): Non-Toxic
Activity (HT-29 [11]): Non-Toxic
Activity (HT-29 [12]): Non-Toxic
Activity (HT-29 [13]): Non-Toxic
inhibition (Cricetulus griseus [14]): Active
Activity (SW480): Non-Toxic
Activity (HCT-116): Active
Activity (RKO): Active
Activity (HT-29 [18]): Non-Toxic
